Assay results published in patent EP0379367B1, “Method for the prevention of intrinsically aged skin with retinoids” (ORTHO PHARMACEUTICAL CORPORATION, priority 1989, dated 1990).
Entries after “also recorded” stand apart in the source; their conditions may differ.

Key:
[1] = tested on: Female Albino hairless mice (Skh-hairless-1); assay: Lifetime topical application of all-trans-retinoic acid to albino hairless mice (toxicity, clinical and histochemical skin observations); settings: for clinical observations: condition of the skin: lifetime application, mice 91-106 weeks of age at photograph (Figure 1), versus vehicle and untreated controls
Experimental: (§1) Lifetime Application of all-trans-Retinoic Acid to Albino Hairless Mice.
(§2) Female Albino hairless mice (Skh-hairless-1), age 8-11 weeks, were treated topically, three times a week, for the remainder of their life span as follows:
(§3) The mice were examined monthly for skin changes and possible weight loss that might indicate a toxic effect.
(§4) Toward the end of the study, mice were photographed to show the condition of the skin. A few mice were sacrificed at about 70, 80 and 90 weeks, with dorsal skin taken for histochemical evaluation. The remainder were allowed to live out their life span which ranged from 91-106 weeks and were biopsied when moribound, if possible. The histochemical stains were: H&E for general histology, Luna's for elastic fibers, Van Gieson's for collagen and Mowry's for proteoglycans.

[2] = tested on: Female Albino hairless mice (Skh-hairless-1); settings: mouse, in vivo
Experimental: as §1, §2, §3, §4

SMILES: CC1=C(/C=C/C(C)=C/C=C/C(C)=C/C(=O)O)C(C)(C)CCC1 [all-trans-retinoic acid]
- mortality ([1]; 0.025% (100 µl) topically, three times a week, remainder of life span, compared with cream vehicle and untreated groups): no difference in mortality
- clinical observations: condition of the skin [1]: thinner, pinker, more uniform skin than the controls
- clinical observations: condition of the skin ([1]; listed as All-trans-retinoic acid): thinner, pinker, more uniform skin than controls or untreated mice
- collagen in the repair zones (Van Gieson's stain) ([1]; lifetime treatment): stained mainly as normal, mature collagen
- dermal inflammation (H&E) ([1]; lifetime treatment): mild inflammatory infiltrate in the mid-dermis
- epidermal cell morphology (H&E) ([1]; lifetime treatment): plump, cytologically normal and have abundant cytoplasm; also recorded: plump, cytologically normal and had an abundant cytoplasm
- granular layer of epidermis (H&E) ([1]; lifetime treatment): about 4 cell layers
- elastic fibers (Luna's stain) ([1]; lifetime treatment (Figure 4)): increased amount of new elastic fibers
- glycosamino-/proteoglycan deposits at the dermal-epidermal junction (Mowry's stain) ([1]; lifetime treatment, compared with the other groups): Fewer deposits
- epidermis (H&E), thickness ([1]; lifetime treatment, hyperplastic, controls had the usual 2-4 compressed-looking cells): about 8 cell layers
- new collagen (H&E; Luna's stain) ([1]; lifetime treatment, no repair areas in controls): Areas of new collagen were apparent
- granular layer of epidermis (H&E, Figure 4) ([1]; lifetime treatment, sample from a mouse 95 weeks of age): approximately 4 cells
- dermal glycosaminoglycans or proteoglycans (Mowry's stain) ([1]; lifetime treatment, stated for all groups): little or no increase
- blood vessels (H&E) ([1]; lifetime treatment, unlike in the controls): abundance of new blood vessels; also recorded: readily seen
- toxic effects ([1]; treatment over a lifetime): no detectable toxic effects
- adverse or unusual effects at biopsy and necropsy [2]: no indication that the mice suffered any adverse or unusual effects
- weights of mice [2]: no difference in the weights
